Laboratory results: PMC8066339, “Optimization of 2-Acylaminocycloalkylthiophene Derivatives for Activity against Staphylococcus aureus RnpA” (Antibiotics, 2021)
“Also recorded” adds a separate entry of the source.

Key:
[1] = system: RnpA-mediated ptRNA processing; experiment: Cellular ptRNA^Tyr accumulation (qRT-PCR); type: cell-based, Staphylococcus aureus; settings: 0.5X MIC for 1 h, Figure 3 right
Experimental: To evaluate the effects of each analog on cellular RnpA-mediated ptRNA processing, S. aureus cells were treated with a sub-inhibitory concentration of each analog (0.5X MIC) and qRT-PCR was used to measure ptRNA^Tyr accumulation, as previously described. […] Compounds RNP0007, 11,13, 14, 15, and 16 had little effect on ptRNA^Tyr levels in the cellular context.
Cellular S. aureus tRNA^Tyr pools were measured as previously described. […] The culture was removed, combined with an equal volume of acetone:ethanol (1:1 v/v) and stored at −80 °C.
(§1) Cell suspensions in acetone:ethanol were thawed on ice and centrifuged at 1560× g for 10 min at 4 °C. Acetone:ethanol was decanted, and pellets were left to air-dry for 5 min. Cell pellets were resuspended in 500 µL ice-cold TE buffer (10 mM Tris-HCl, pH 8.0, 1mM EDTA) and transferred to FastPrep Lysing Matrix B tubes (MP Biomedicals, Santa Ana, CA). Mixtures were homogenized at 5 m∙s^−1 for 20 s, rested on ice for 5 min, then homogenized again at 4.5 m∙s^−1 for 20 s in a FastPrep-24 instrument. Cell lysates were centrifuged at 16,200× g for 15 min at 4 °C to remove cell debris. Total bacterial RNA and tRNA^Tyr populations were isolated from the supernatant using Qiagen RNeasy Mini kits and miRNeasy kits, respectively, following the manufacturer’s recommendations (Germantown, MD). For qRT-PCR, 2 µg of RNA substrate was treated with 2 units of DNase I (New England Biolabs, Ipswich, MA, USA) for 1 h at 37 °C and re-purified using Qiagen RNeasy Mini kits, following the manufacturer’s instructions. RNA was measured for concentration and quality using a NanoDrop spectrophotometer. Quantabio (Beverly, MA, USA) qScript cDNA Supermix was used to convert 200 ng of RNA into cDNA, following manufacturer’s instructions, which was subsequently amplified using Quantabio SYBR Green Fast Mix following manufacturer’s instructions. Fluorescence was read on the BioRad (Hercules, CA, USA) CFX 96 Connect Real Time Machine. Transcript levels were compared to the internal control 16S rRNA (ΔΔCt) and plotted as fold change compared to the control. The following primer pairs were used in this study for qRT-PCR: spa forward—[…]; spa reverse—[…]; –15 ptRNA^Tyr forward—[…]; tRNA^Tyr reverse—TGGTG GAGGGGGGCAGATTC; 16S rRNA forward—[…]; 16S rRNA reverse—[…].

S. aureus RnpA = molecular target: T1, S. aureus RnpA (Staphylococcus aureus, UniProt P0A0H5); experiment: In vitro RnpA mRNA degradation assay (RNase Alert FRET substrate); type: biochemical; settings: for IC50: in vitro RnpA-mediated RNA degradation, read-out: mRNA IC50; for RNA degradation inhibition in time course study: 50 µM compound, 30 min at 37 °C, Figure 2A
T1 construct: made in house; host or cells: E. coli BL21 (DE3)
T1 sequence (P0A0H5 1-117): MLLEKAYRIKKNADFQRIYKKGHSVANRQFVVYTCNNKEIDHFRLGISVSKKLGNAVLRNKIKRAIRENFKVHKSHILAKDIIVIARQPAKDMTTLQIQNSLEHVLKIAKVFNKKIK
Experimental: His-tagged RnpA was purified as previously described. E. coli BL21 (DE3) cells harboring plasmid pEXP5-nt containing a hexahistidine tag fused to the N-terminus of S.aureus RnpA coding region were grown in LB supplemented with 50 µg mL^−1 ampicillin to OD600 = 0.6 and induced with 1mM isopropyl β-D-1-thiogalactopyranoside (IPTG) for three hours to induce protein expression. […] Cells were mechanically lysed by three passes at 18,000 psi through a French Pressure Cell Press (SLM-Aminco; Pittsford, NY, USA) and cell debris was removed by centrifugation at 17,000× g for 10 min at 4 °C. Supernatants were collected, filtered through a 0.2 micron syringe filter, then loaded onto a 5 mL HisPur cobalt column (ThermoFisher Scientific, Waltham, MA, U.S.A.) using the BioRad Maximizer Duo-Flow Medium Pressure Chromatography System. Protein was eluted using an imidazole gradient (80 mM to 500 mM). Fractions were assessed for RnpA presence and purity via SDS-PAGE analysis, Coomassie staining and Western blotting using an anti-His antibody (Invitrogen; Grand Island, NY, USA).
RnpA-mediated degradation was assessed using the Rnase Alert QC System (Thermofisher Scientific). 20 pmol of His-RnpA was combined with 0.4 μM (final concentration) FRET substrate and either DMSO (negative control) or compound ≤500 µM in 1× Rnase Alert Buffer. Reactions were assembled in 96-well PCR plates (BioRad) and incubated at 37 °C for 30 min in the BioRad CFX 96 Connect Real Time instrument, measuring fluorescence every 2 min at 490 nm excitation/520 nm emission. Percent inhibition of each compound was calculated at the 30 min time-point based on the following formula: (RFU of compound treated RnpA/RFU of DMSO-treated RnpA) × 100.

[2] = system: RnpA-mediated mRNA turnover of spa mRNA; experiment: Cellular mRNA turnover assay (spa mRNA, qRT-PCR after rifampin arrest); type: cell-based, Staphylococcus aureus; settings: 0.5X MIC for 30 min, 0 and 5 min post-transcriptional arrest, Figure 3 left
Experimental: As a more direct measure of whether the antimicrobial effects were RnpA-dependent, studies were performed to measure their inhibition of cellular RnpA-mediated mRNA turnover of spa mRNA. The spa mRNA is a natural substrate of RnpA mRNA degradation, as previously described, and can be utilized for an intracellular readout of inhibition for RnpA-mediated mRNA turnover. To do so, S. aureus cells were treated with a sub-inhibitory concentration of compound (0.5X MIC) then challenged with the antibiotic rifampicin to arrest de novo RNA synthesis. Quantitative RT-PCR was used to measure the cellular titers of spa mRNA at 0 and 5 min post-transcriptional arrest.
S.aureus RNA half-life measurements were performed as described. […] To inhibit de novo RNA synthesis, rifampin (Alfa Aesar, Haverhill, MA, USA) was added to the culture at a final concentration of 200 µg mL^−1. Half of the culture was immediately removed and combined with an equal volume of ice-cold acetone:ethanol (1:1 v/v). The remainder of the culture was returned to the 37 °C incubator for an additional 5 min, then combined with an equal volume of ice-cold acetone:ethanol (1:1 v/v) and stored at −80 °C.
as §1

Compound | Cellular ptRNA^Tyr accumulation (in words) [1] | Inhibition of in vitro RnpA-mediated RNA degradation (in words) (S. aureus RnpA) | IC50 (S. aureus RnpA) [µM] | Inhibition of cellular spa mRNA turnover (in words) [2] | RNA degradation inhibition in time course study (S. aureus RnpA)
O=C(Nc1ccc(C(F)(F)F)cc1)c1c(NC(=O)C(F)(F)F)sc2c1CCCC2 [RNP0015] | little effect | good inhibitory properties | 43 | – | –
Cc1cccc(NC(=O)c2c(NC(=O)C(F)(F)F)sc3c2CCCCC3)c1 [RNP0010] | largest increases | least effective | 224 | strong inhibitor | –
O=C(Nc1cccc(Cl)c1)c1c(NC(=O)C(F)(F)F)sc2c1CCCCC2 [RNP0007] | little effect | least effective; also recorded: weakly inhibited | 175 | – | varying degrees of RNA degradation inhibition
O=C(Nc1ccc(F)cc1)c1c(NC(=O)C(F)(F)F)sc2c1CCCC2 [RNP0014] | little effect | strongest inhibitor | 6.4 | strongest stabilizers of mRNA | varying degrees of RNA degradation inhibition
O=C(Nc1ccc(C(F)(F)F)cc1)c1c(NC(=O)C(F)(F)F)sc2c1CCCCC2 [RNP0012] | largest increases; also recorded: top-performing cellular ptRNA processing inhibitor | good inhibitory properties | 68 | moderate inhibitors; also recorded: significantly reduced RnpA-associated mRNA degradation | varying degrees of RNA degradation inhibition
O=C(Nc1cccc(F)c1)c1c(NC(=O)C(F)(F)F)sc2c1CCCC2 [RNP0013] | little effect | good inhibitory properties | 50 | – | –
O=C(Nc1cccc(C(F)(F)F)c1)c1c(NC(=O)C(F)(F)F)sc2c1CCCCC2 [RNP0011] | little effect | good inhibitory properties | 59 | moderate inhibitors | –
O=C(Nc1cccc(C(F)(F)F)c1)c1c(NC(=O)C(F)(F)F)sc2c1CCCC2 [RNP0016] | little effect | good inhibitory properties | 45 | strongest stabilizers of mRNA | –
O=C(Nc1ccc(F)cc1)c1c(NC(=O)C(F)(F)F)sc2c1CCCCC2 [RNP0009] | largest increases | least effective | > 250 | weakest inhibitors | –
O=C(Nc1cccc(F)c1)c1c(NC(=O)C(F)(F)F)sc2c1CCCCC2 [RNP0008] | largest increases | least effective | 245 | weakest inhibitors | varying degrees of RNA degradation inhibition
